Measured values as given in ChEMBL document CHEMBL1126867, “Antipicornavirus activity of tetrazole analogues related to disoxaril” (1993).
≈ marks a conversion by molar mass, not a printed value. One block for each compound: values may come before it. Calls of active or inactive are those of the source. The calls are words filed in the database; no cut-off is given here.

Legend:
[1] = tested on: Human rhinovirus 1A; experiment: In vitro antiviral activity against human rhinovirus-1A using plaque reduction assay; assay type: functional
[2] = tested on: rhinovirus B14; experiment: In vitro antiviral activity against human rhinovirus-14 using plaque reduction assay; assay type: functional, human rhinovirus type 14; settings: Rhinovirus B
[3] = tested on: Human rhinovirus sp.; experiment: (§1) Minimum inhibitory concentration which inhibits 80% of serotypes was determined; assay type: functional
[4] = tested on: rhinovirus B14; experiment: In vitro antiviral activity against human rhinovirus-14 using plaque reduction assay; not active; assay type: functional, organism-based; settings: human rhinovirus type 14
[5] = tested on: Human rhinovirus 1A; experiment: In vitro antiviral activity against human rhinovirus-1A using plaque reduction assay; not active; assay type: functional, organism-based
[6] = tested on: Human rhinovirus sp.; experiment: In vitro antiviral activity against human rhinovirus 2 serotype; assay type: functional
[7] = tested on: Human rhinovirus sp.; experiment: In vitro antiviral activity against human rhinovirus-21 serotype; assay type: functional
[8] = tested on: Human rhinovirus sp.; experiment: (§2) In vitro antiviral activity against human rhinovirus 1A serotype; assay type: functional
[9] = tested on: Human rhinovirus sp.; experiment: In vitro antiviral activity against human rhinovirus 86 serotype; assay type: functional
[10] = tested on: Human rhinovirus sp.; experiment: In vitro antiviral activity against human rhinovirus 50 serotype; assay type: functional
[11] = tested on: Human rhinovirus sp.; experiment: In vitro antiviral activity against human rhinovirus-41 serotype; assay type: functional
[12] = tested on: Human rhinovirus sp.; experiment: In vitro antiviral activity against human rhinovirus 1B serotype; assay type: functional
[13] = tested on: Human rhinovirus sp.; experiment: In vitro antiviral activity against human rhinovirus-15 serotype; assay type: functional
[14] = tested on: Human rhinovirus sp.; experiment: In vitro antiviral activity against human rhinovirus-30 serotype; assay type: functional
[15] = tested on: Human rhinovirus sp.; experiment: In vitro antiviral activity against human rhinovirus 67 serotype; assay type: functional
[16] = tested on: Human rhinovirus sp.; experiment: In vitro antiviral activity against human rhinovirus-25 serotype; assay type: functional
[17] = tested on: Human rhinovirus sp.; experiment: In vitro antiviral activity against human rhinovirus-22 serotype; assay type: functional
[18] = tested on: Human rhinovirus sp.; experiment: In vitro antiviral activity against human rhinovirus 89 serotype; assay type: functional
[19] = tested on: Human rhinovirus sp.; experiment: In vitro antiviral activity against human rhinovirus 6 serotype; assay type: functional
[20] = tested on: Human rhinovirus sp.; experiment: In vitro antiviral activity against human rhinovirus 14 serotype; assay type: functional
[21] = as §1; assay type: functional, human rhinovirus-1a, 14; settings: Human rhinovirus sp.
[22] = tested on: Human rhinovirus 1A; experiment: as §2; assay type: functional
[23] = tested on: Human rhinovirus 1B (rhinovirus A); experiment: In vitro antiviral activity against human rhinovirus 1B serotype

MIC50 [1]: 0.1 µM (≈ 0.0341 µg/mL)
MIC50 [2]: 2.43 µM (≈ 0.83 µg/mL)
MIC80 [3]: 0.66 µM (≈ 0.225 µg/mL)
Structure (SMILES): Cc1cc(CCCCOc2c(C)cc(-c3nnn(C)n3)cc2C)on1

MIC50 [1]: 0.54 µM (≈ 0.2 µg/mL)
MIC50 [2]: 0.11 µM (≈ 0.0406 µg/mL)
MIC80 [3]: 0.54 µM (≈ 0.2 µg/mL)
Structure (SMILES): CCCCc1cc(CCCOc2c(C)cc(-c3nnn(C)n3)cc2C)on1

MIC50 [1]: 0.18 µM (≈ 0.0669 µg/mL)
MIC50 [2]: 0.62 µM (≈ 0.23 µg/mL)
MIC80 [3]: 1.59 µM (≈ 0.591 µg/mL)
Structure (SMILES): Cc1cc(-c2nnn(C)n2)cc(C)c1OCCCCCc1cc(CO)no1

MIC50 [1]: 0.19 µM (≈ 0.0672 µg/mL)
MIC50 [2]: 0.48 µM (≈ 0.17 µg/mL)
MIC80 [3]: 0.48 µM (≈ 0.17 µg/mL)
Structure (SMILES): Cc1cc(-c2nnn(C)n2)cc(C)c1OCCCc1cc(C2CC2)no1

MIC [6]: 0.04 µM (≈ 0.0142 µg/mL)
MIC [7]: 0.02 µM (≈ 0.00711 µg/mL)
MIC50 [1]: 0.12 µM (≈ 0.0427 µg/mL)
MIC [8]: 0.12 µM (≈ 0.0427 µg/mL)
MIC [9]: 0.12 µM (≈ 0.0427 µg/mL)
MIC [10]: 0.09 µM (≈ 0.032 µg/mL)
MIC [11]: 0.93 µM (≈ 0.331 µg/mL)
MIC [12]: 0.03 µM (≈ 0.0107 µg/mL)
MIC [13]: 0.68 µM (≈ 0.242 µg/mL)
MIC [14]: 0.2 µM (≈ 0.0711 µg/mL)
MIC50 [2]: 0.12 µM (≈ 0.0427 µg/mL)
MIC [15]: 0.22 µM (≈ 0.0782 µg/mL)
MIC [16]: 0.006 µM (≈ 0.00213 µg/mL)
MIC [17]: 0.08 µM (≈ 0.0284 µg/mL)
MIC [18]: 0.02 µM (≈ 0.00711 µg/mL)
MIC [3]: 0.2 µM (≈ 0.0711 µg/mL)
MIC80 [3]: 0.2 µM (≈ 0.0711 µg/mL)
MIC [19]: 0.15 µM (≈ 0.0533 µg/mL)
MIC [20]: 0.12 µM (≈ 0.0427 µg/mL)
Structure (SMILES): CCCc1cc(CCCOc2c(C)cc(-c3nnn(C)n3)cc2C)on1

MIC50 [1]: 0.71 µM (≈ 0.264 µg/mL)
MIC50 [2]: 1.8 µM (≈ 0.669 µg/mL)
Structure (SMILES): Cc1cc(-c2nnn(C)n2)cc(C)c1OCCCc1cc(CC(C)O)no1 (configuration not stated)

MIC50 [1]: 0.11 µM (≈ 0.0378 µg/mL)
MIC50 [2]: 1.4 µM (≈ 0.481 µg/mL)
MIC80 [3]: 0.33 µM (≈ 0.113 µg/mL)
Structure (SMILES): COc1cc(CCCOc2c(C)cc(-c3nnn(C)n3)cc2C)on1

MIC50 [1]: 0.05 µM (≈ 0.0171 µg/mL)
MIC50 [2]: 0.5 µM (≈ 0.171 µg/mL)
MIC80 [3]: 0.41 µM (≈ 0.14 µg/mL)
Structure (SMILES): CCc1cc(CCCOc2c(C)cc(-c3nnn(C)n3)cc2C)on1

MIC50 [1]: 0.67 µM (≈ 0.26 µg/mL)
MIC50 [4]: inactive
Structure (SMILES): Cc1cc(-c2nnn(C)n2)cc(C)c1OCCCc1cc(CC(O)CO)no1 (configuration not stated)

MIC50 [1]: 0.14 µM (≈ 0.05 µg/mL)
MIC50 [2]: 2 µM (≈ 0.715 µg/mL)
MIC80 [3]: 1.09 µM (≈ 0.39 µg/mL)
Structure (SMILES): Cc1cc(-c2nnn(C)n2)cc(C)c1OCCCc1cc(CCO)no1

MIC [6]: 0.02 µM (≈ 0.00767 µg/mL)
MIC [7]: 0.02 µM (≈ 0.00767 µg/mL)
MIC [22]: 2.51 µM (≈ 0.962 µg/mL)
MIC [9]: 0.21 µM (≈ 0.0805 µg/mL)
MIC [10]: 0.3 µM (≈ 0.115 µg/mL)
MIC [11]: 0.89 µM (≈ 0.341 µg/mL)
MIC [13]: 0.41 µM (≈ 0.157 µg/mL)
MIC [23]: 0.17 µM (≈ 0.0652 µg/mL)
MIC [14]: 0.09 µM (≈ 0.0345 µg/mL)
MIC [15]: 0.18 µM (≈ 0.069 µg/mL)
MIC [16]: 0.29 µM (≈ 0.111 µg/mL)
MIC [17]: 0.02 µM (≈ 0.00767 µg/mL)
MIC [18]: 0.02 µM (≈ 0.00767 µg/mL)
MIC [3]: 0.41 µM (≈ 0.157 µg/mL)
MIC [19]: 0.23 µM (≈ 0.0882 µg/mL)
MIC [20]: 1.2 µM (≈ 0.46 µg/mL)
Structure (SMILES): Cc1cc(CCCCCOc2c(Cl)cc(C3=NCCO3)cc2Cl)on1 [WIN-54954]

More lines, now with the values behind:

Structure (SMILES): Cc1cc(-c2nnn(C)n2)cc(C)c1OCCCCCc1cc(COCOCCO)no1
MIC50 [1]: 4.03 µM (≈ 1.8 µg/mL)
MIC50 [2]: 0.06 µM (≈ 0.0267 µg/mL)

Structure (SMILES): Cc1cc(CCCCCCCOc2c(C)cc(-c3nnn(C)n3)cc2C)on1
MIC50 [1]: 0.76 µM (≈ 0.291 µg/mL)
MIC50 [2]: 3 µM (≈ 1.15 µg/mL)
MIC80 [3]: 1.6 µM (≈ 0.614 µg/mL)

Structure (SMILES): COC(=O)Cn1nnc(-c2cc(C)c(OCCCCCc3cc(C)no3)c(C)c2)n1
MIC50 [4]: inactive
MIC50 [5]: inactive

Structure (SMILES): CC(=O)c1cc(CCCOc2c(C)cc(-c3nnn(C)n3)cc2C)on1
MIC50 [1]: 0.12 µM (≈ 0.0426 µg/mL)
MIC50 [2]: 0.96 µM (≈ 0.341 µg/mL)

Structure (SMILES): Cc1cc(CCCCCOc2c(Cl)cc(-c3nnn(C)n3)cc2Cl)on1
MIC50 [1]: 0.38 µM (≈ 0.151 µg/mL)
MIC50 [2]: 0.38 µM (≈ 0.151 µg/mL)
MIC80 [3]: 0.25 µM (≈ 0.0991 µg/mL)

Structure (SMILES): Cc1cc(CCCOc2c(C)cc(-c3nnn(C)n3)cc2C)on1
MIC [6]: 0.02 µM (≈ 0.00655 µg/mL)
MIC [7]: 0.02 µM (≈ 0.00655 µg/mL)
MIC50 [1]: 0.11 µM (≈ 0.036 µg/mL)
MIC [8]: 0.11 µM (≈ 0.036 µg/mL)
MIC [9]: 2.05 µM (≈ 0.671 µg/mL)
MIC [10]: 0.23 µM (≈ 0.0753 µg/mL)
MIC [11]: 0.4 µM (≈ 0.131 µg/mL)
MIC [12]: 0.03 µM (≈ 0.00982 µg/mL)
MIC [13]: 0.18 µM (≈ 0.0589 µg/mL)
MIC [14]: 0.07 µM (≈ 0.0229 µg/mL)
MIC50 [2]: 1.74 µM (≈ 0.57 µg/mL)
MIC [15]: 0.14 µM (≈ 0.0458 µg/mL)
MIC [16]: 0.06 µM (≈ 0.0196 µg/mL)
MIC [17]: 0.05 µM (≈ 0.0164 µg/mL)
MIC [18]: 0.01 µM (≈ 0.00327 µg/mL)
MIC [3]: 0.4 µM (≈ 0.131 µg/mL)
MIC [19]: 2.2 µM (≈ 0.72 µg/mL)
MIC80 [21]: 0.4 µM (≈ 0.131 µg/mL)
MIC [20]: 1.7 µM (≈ 0.557 µg/mL)

Structure (SMILES): CCOc1cc(CCCOc2c(C)cc(-c3nnn(C)n3)cc2C)on1
MIC50 [1]: 0.15 µM (≈ 0.0536 µg/mL)
MIC50 [2]: 0.1 µM (≈ 0.0357 µg/mL)
MIC80 [3]: 0.7 µM (≈ 0.25 µg/mL)

Structure (SMILES): Cc1cc(CCCCCCOc2c(C)cc(-c3nnn(C)n3)cc2C)on1
MIC50 [1]: 0.24 µM (≈ 0.0887 µg/mL)
MIC50 [2]: 1.91 µM (≈ 0.706 µg/mL)
MIC80 [3]: 0.73 µM (≈ 0.27 µg/mL)
